Some test systems named below: A549 NSCLC; HOP-92 NSCLC; IGROV1 ovarian; K-562 leukemia; PC-3 prostate; SK-MEL-2 melanoma; SK-MEL-28 melanoma; SN12C renal; U251 CNS; UACC-62 melanoma.
Assay in all cases: DTP human tumour cell line panel, 48 h

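Protocol summary: plate cells (96-well), add compound at 5 concentrations, incubate 48 h, interpolate endpoints linearly. GI50: concentration for 50% inhibition of growth. TGI denotes the concentration required for complete inhibition of growth.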

A word on the GI50: it is the concentration that inhibits growth by half. The TGI is the concentration giving total growth inhibition. Low values mean more potent growth arrest, high ones less potent growth arrest. For the compound `COc1ccc(-c2nn(-c3cccc(Cl)c3)cc2-c2cc(-c3ccccc3)[nH]c(=O)c2C#N)cc1`, the GI50 was 2.26 µM in the assay on A549 NSCLC; 0.654 µM in the assay with HOP-92 NSCLC; 1.89 µM in the assay with IGROV1 ovarian; 9.22 µM in the assay on K-562 leukemia; 6.01 µM with PC-3 prostate; 2.13 µM in the assay with SK-MEL-2 melanoma. Besides, the GI50 with SK-MEL-28 melanoma is 2.93 µM; in the assay with SN12C renal, 7.94 µM; with U251 CNS it was 1.48 µM; with UACC-62 melanoma, 2.26 µM. Besides, the TGI in the assay on A549 NSCLC is greater than 50 µM; in the assay with HOP-92 NSCLC, 2.14 µM; in the assay with IGROV1 ovarian, 7.71 µM; with K-562 leukemia, greater than 50 µM; with PC-3 prostate it was 41.6 µM; with SK-MEL-2 melanoma it was 9.35 µM. For the same compound, the TGI with SK-MEL-28 melanoma was greater than 50 µM; with SN12C renal, greater than 50 µM; with U251 CNS, 6.76 µM; in the assay with UACC-62 melanoma it was 11.1 µM.
As to `NCCNCC1CCNCC1`, the TGI with A549 NSCLC, with HOP-92 NSCLC, in the assay on IGROV1 ovarian, in the assay with K-562 leukemia, in the assay with PC-3 prostate and with SK-MEL-2 melanoma was greater than 100 µM each time. Besides, the total growth inhibition concentration (TGI) in the assay with SK-MEL-28 melanoma, with SN12C renal, in the assay on U251 CNS and with UACC-62 melanoma was greater than 100 µM throughout.
`COc1cc2c(Nc3cc(Cl)c(OC)c(Cl)c3)c(C#N)cnc2cc1OCCCN1CCN(C)CC1`: the GI50 in the assay on A549 NSCLC is 1.5 µM; in the assay with HOP-92 NSCLC it was 7.83 µM; with IGROV1 ovarian, 0.189 µM; with K-562 leukemia, 0.574 µM; with PC-3 prostate it was 7.06 µM; with SK-MEL-2 melanoma, 1.32 µM. Further, the GI50 in the assay on SK-MEL-28 melanoma is 1.97 µM; in the assay with SN12C renal, 0.95 µM; with U251 CNS, 1.92 µM; with UACC-62 melanoma, 2.73 µM. Moreover, the TGI with A549 NSCLC was found to be 4.12 µM; in the assay on HOP-92 NSCLC it was 19.4 µM; in the assay with IGROV1 ovarian it was 12 µM; in the assay on K-562 leukemia it was 8.41 µM; in the assay on PC-3 prostate it was 20.6 µM; in the assay with SK-MEL-2 melanoma, 2.9 µM. Also, the total growth inhibition concentration (TGI) was 4.53 µM in the assay with SK-MEL-28 melanoma, 17.2 µM in the assay on SN12C renal, 4.05 µM in the assay with U251 CNS and 7.9 µM in the assay on UACC-62 melanoma.
Consider `Nc1cc(Br)c(-c2nnc(CCC(=O)c3nc4ccccc4[nH]3)o2)c(Br)c1`, for which the GI50 in the assay with A549 NSCLC was 27.6 µM; in the assay on HOP-92 NSCLC, 0.499 µM; in the assay on IGROV1 ovarian it was 5.87 µM; in the assay on K-562 leukemia it was 2.89 µM; in the assay with PC-3 prostate it was 2.9 µM; in the assay on SK-MEL-2 melanoma it was 4.3 µM. Also, the GI50 in the assay with SK-MEL-28 melanoma was 6.31 µM; with SN12C renal, 29.5 µM; in the assay on U251 CNS, 3.5 µM; in the assay with UACC-62 melanoma, 5.37 µM. Moreover, the TGI in the assay with A549 NSCLC is greater than 100 µM; with HOP-92 NSCLC it was 19.9 µM; with IGROV1 ovarian, 62.7 µM; in the assay on K-562 leukemia, greater than 100 µM; with PC-3 prostate it was greater than 100 µM; in the assay with SK-MEL-2 melanoma, greater than 100 µM. The TGI with SK-MEL-28 melanoma is 79 µM; in the assay on SN12C renal, greater than 100 µM; in the assay on U251 CNS, greater than 100 µM; with UACC-62 melanoma, greater than 100 µM.
Regarding `COc1cc(/C=C\c2cc(OC)c(OC)c(OC)c2)cc(N/C=C\C(=O)c2c[nH]c3ccccc23)c1OC`, the GI50 is 14.5 µM in the assay on A549 NSCLC; 1.5 µM in the assay with HOP-92 NSCLC; 1.23 µM in the assay with IGROV1 ovarian; 1.54 µM with K-562 leukemia; 3.44 µM in the assay with PC-3 prostate; 2.21 µM in the assay on SK-MEL-2 melanoma. For the same compound, the GI50 in the assay on SK-MEL-28 melanoma is 1.86 µM; in the assay with SN12C renal, 2.44 µM; in the assay with U251 CNS, 3.84 µM; in the assay with UACC-62 melanoma it was 1.39 µM. Also, the TGI in the assay on A549 NSCLC is 34.8 µM; in the assay on HOP-92 NSCLC, 4.5 µM; in the assay with IGROV1 ovarian it was 3.56 µM; with K-562 leukemia, greater than 100 µM; with PC-3 prostate, 18.6 µM; with SK-MEL-2 melanoma, 4.68 µM. The TGI in the assay with SK-MEL-28 melanoma stood at 3.79 µM; in the assay with SN12C renal it was 7.13 µM; with U251 CNS, 15.7 µM; in the assay on UACC-62 melanoma, 3.33 µM.
Turning to `CCC/C=C/C=C/C1CC(O)C(O)C(=O)C1CO` (stereo not given), the TGI with A549 NSCLC, in the assay with HOP-92 NSCLC, with IGROV1 ovarian, in the assay with K-562 leukemia, with PC-3 prostate and in the assay with SK-MEL-2 melanoma was greater than 100 µM in each case. The TGI in the assay with SK-MEL-28 melanoma, in the assay on SN12C renal, with U251 CNS and with UACC-62 melanoma was greater than 100 µM throughout.
Turning to `Nc1ccccc1O.O.O=C(O)C1[O][Sb][O]C1C(=O)O` (stereo not given), the GI50 with A549 NSCLC is 54.7 µM; in the assay on HOP-92 NSCLC it was 21 µM; in the assay with IGROV1 ovarian, 17.6 µM; in the assay on K-562 leukemia it was 3.77 µM; in the assay on PC-3 prostate, 25.8 µM; with SK-MEL-2 melanoma, 15 µM. For the same compound, the GI50 is 10.2 µM in the assay with SK-MEL-28 melanoma, 7.7 µM with SN12C renal, 13.8 µM with U251 CNS and 15.1 µM in the assay with UACC-62 melanoma. Moreover, the TGI in the assay on A549 NSCLC is greater than 100 µM; in the assay on HOP-92 NSCLC, 40.2 µM; in the assay on IGROV1 ovarian, 33.2 µM; with K-562 leukemia, greater than 36.1 µM; with PC-3 prostate, greater than 100 µM; in the assay on SK-MEL-2 melanoma it was 32.1 µM. Moreover, the TGI with SK-MEL-28 melanoma worked out at 24.6 µM; in the assay on SN12C renal, 21.3 µM; in the assay with U251 CNS it was 27.8 µM; in the assay with UACC-62 melanoma, 30.3 µM.
For `CC(C)[C@H](O)C(=O)N[C@@H](C)C(=O)N[C@@H]1C(=O)N(C)CCc2ccccc21`, the GI50 with A549 NSCLC, with HOP-92 NSCLC, in the assay on IGROV1 ovarian, with K-562 leukemia, with PC-3 prostate and in the assay with SK-MEL-2 melanoma was greater than 100 µM each time. The GI50 with SK-MEL-28 melanoma, in the assay on SN12C renal, in the assay on U251 CNS and in the assay with UACC-62 melanoma was greater than 100 µM in each case. Further, the TGI with A549 NSCLC, with HOP-92 NSCLC, with IGROV1 ovarian, with K-562 leukemia, in the assay with PC-3 prostate and in the assay with SK-MEL-2 melanoma was greater than 100 µM throughout. Moreover, the TGI with SK-MEL-28 melanoma, in the assay on SN12C renal, with U251 CNS and in the assay with UACC-62 melanoma was greater than 100 µM throughout.

These data come from PubChem BioAssay (NCI).
